≈ marks a conversion by molar mass, not a printed value.
Key:
K. pneumoniae 225 [1] = assay: Three-dimensional test (enzymatic inactivation of antibiotics); details: beta-lactamase-mediated hydrolysis by K. pneumoniae 225, lawn E. coli ATCC 25922
E. aerogenes [2] = assay: Double-disk potentiation test; format: cell-based, Enterobacter aerogenes; details: all the E. aerogenes strains selected; potentiation by clavulanic acid
Text: This test described by Jarlier et al., Rev. Infect. Dis.

E. aerogenes [3] = assay: Vitek automated susceptibility system; format: cell-based, Enterobacter aerogenes; details: the 31 selected E. aerogenes strains
Text: Among all E. aerogenes recovered from clinical specimens during an eighteen month period (September 1993 to March 1995), thirty-one E. aerogenes strains showing a resistance phenotype different from that observed with derepressed mutants normally encountered at the Hunter Holmes McGuire Medical Center, Richmond, Va. were selected for this study. The strains selected were intermediate to ceftriaxone but resistant to ceftazidime when tested with the Vitek automated susceptibility system (bioMerieux Vitek, St. Louis, Mo.). Derepressed mutants previously isolated from this center were usually resistant to both ceftriaxone and ceftazidime.

[4] = system: E. coli HB101 transformant (17 kb plasmid); details: disk diffusion, Tr (17 kb) = transformant E. coli HB101
K. pneumoniae 225 [5] = details: test drug disk around amoxicillin-clavulanate disk
K. pneumoniae 225 [6] = assay: NCCLS microdilution susceptibility test; format: cell-based, Klebsiella pneumoniae; details: Klebsiella pneumoniae, 225
[7] = system: E. coli C600 transconjugant; details: disk diffusion, Tc = transconjugate E. coli C600
K. pneumoniae 225 [8] = assay: NCCLS disk diffusion assay; format: cell-based, Klebsiella pneumoniae; details: disk diffusion, Kleb 225
SHV and TEM genes [9] = assay: PCR amplification with TEM and SHV primers; design: species or system Escherichia coli
Experimental: (§1) The organisms were inoculated into 5 ml of Luria Bertani (LB) broth (Difco, Detroit, Mich.) and incubated for 20 hours at 37° C. with shaking. Cells from 1.5 ml of overnight culture were harvested by centrifugation at 17,310×g in an Hermle centrifuge for 5 minutes. After the supernatant was decanted, the pellet was resuspended in 500 μl of distilled water. The cells were lysed by heating at 95° C. for 10 minutes and cellular debris was removed by centrifugation for 5 minutes at 17,310×g. The supernatant was used as source of template for amplification.
(§2) The following oligonucleotide primers specific for the SHV and TEM genes were designed by using MacVector version 4.5 (Kodak/IBI): SHV genes: A [5′-([…])-3′] (SEQ ID NO:10) and B [5′-([…])-3′] (SEQ ID NO:11) corresponding to nucleotide numbers 103 to 121 and 988 to 970, respectively, of Mercier et al., Antibicrob. Agents Chemother. 34:1577-1583 (1990)); TEM genes: C [5′-([…])-3′ (SEQ ID NO:5) and D [5′-([…])-3′ (SEQ ID NO:1) corresponding to nucleotide numbers 90 to 105 and 1062 to 1042, respectively, of Sutcliff et al., Proc. Nat. Aca. Sci. USA, 75:3737-3741 (1978). Primers A and B amplified a 885 base pair fragment while primers C and D amplified a 971 base pair fragment. The specificity of the SHV and TEM primers for amplification of SHV and TEM genes respectively was tested by using the following beta-lactamase controls; TEM-I (pACYC177), MIR-1 (from K. pneumoniae96D) and SHV-7 (pCLL3410).
PCR amplifications were carried out on a DNA Thermal Cycler 480 instrument (Perkin-Elmer, Cetus, Norwalk, Conn.) using the Gene Amp DNA amplification kit containing AmpliTaq polymerase (Perkin Elmer, Roche Molecular Systems, Inc., Branchburg, N.J.). The composition of the reaction mixture was as follows: 10 mM Tris-HCl (pH 8.3), 50 mM KCl, 0.1% TRITON X-100, 1.5 mM MgCl2, 0.2 mM (each) of the four deoxynucleoside triphosphates, and 1.2 U of AmpliTaq in a total volume of 49 μl. A total of 1 μl of sample lysate was added to the reaction mixture, and was centrifuged briefly before […] of mineral oil was layered on the surface. The PCR program consisted of an initial denaturation step at 96° C. for 15 seconds; followed by 24 cycles of DNA denaturation at 96° C. for 15 seconds, primer annealing at 50° C. for 15 seconds and primer extension at 72° C. for 2 minutes. After the last cycle the products were stored at 4° C. The PCR products (1/10 volume) were analyzed by electrophoresis using 1.4% agarose gels in TAE buffer (0.04 M Tris-acetate, 0.002 M EDTA [pH 8.5]). The gels were stained with ethidium bromide and the PCR products were visualized with ultra-violet light. […]

SHV and TEM genes [10] = assay: PCR amplification with TEM and SHV primers; design: species or system Proteus mirabilis; details: P. mirabilis Pit 85 (pI 5.6, TEM-26-type)
Experimental: as §1
The following oligonucleotide primers specific for the SHV and TEM genes were designed by using MacVector version 4.5 (Kodak/IBI): SHV genes: A [5′-([…])-3′] (SEQ ID NO:10) and B [5′-([…])-3′] (SEQ ID NO:11) corresponding to nucleotide numbers 103 to 121 and 988 to 970, respectively, of Mercier et al., Antibicrob. Agents Chemother. […]
PCR amplifications were carried out on a DNA Thermal Cycler 480 instrument (Perkin-Elmer, Cetus, Norwalk, Conn.) using the Gene Amp DNA amplification kit containing AmpliTaq polymerase (Perkin Elmer, Roche Molecular Systems, Inc., Branchburg, N.J.). […] The PCR products (1/10 volume) were analyzed by electrophoresis using 1.4% agarose gels in TAE buffer (0.04 M Tris-acetate, 0.002 M EDTA [pH 8.5]). […]

SHV and TEM genes [11] = assay: PCR amplification with TEM and SHV primers; design: species or system Klebsiella pneumoniae
Experimental: as §1, §2
PCR amplifications were carried out on a DNA Thermal Cycler 480 instrument (Perkin-Elmer, Cetus, Norwalk, Conn.) using the Gene Amp DNA amplification kit containing AmpliTaq polymerase (Perkin Elmer, Roche Molecular Systems, Inc., Branchburg, N.J.). The composition of the reaction mixture was as follows: 10 mM Tris-HCl (pH 8.3), 50 mM KCl, 0.1% TRITON X-100, 1.5 mM MgCl2, 0.2 mM (each) of the four deoxynucleoside triphosphates, and 1.2 U of AmpliTaq in a total volume of 49 μl. A total of 1 μl of sample lysate was added to the reaction mixture, and was centrifuged briefly before […] of mineral oil was layered on the surface. The PCR program consisted of an initial denaturation step at 96° C. for 15 seconds; followed by 24 cycles of DNA denaturation at 96° C. for 15 seconds, primer annealing at 50° C. for 15 seconds and primer extension at 72° C. for 2 minutes. After the last cycle the products were stored at 4° C. The PCR products (1/10 volume) were analyzed by electrophoresis using 1.4% agarose gels in TAE buffer (0.04 M Tris-acetate, 0.002 M EDTA [pH 8.5]). The gels were stained with ethidium bromide and the PCR products were visualized with ultra-violet light. […] The larger product which corresponded to the expected size of the SHV specific product was gel purified using a 1.4% agarose in TAE gel and the purified PCR product was used for sequence analysis.

Which three dimensional test (K. pneumoniae 225 [1]) does the source give for `CO/N=C(\C(=O)N[C@@H]1C(=O)N2C(C(=O)O)=C(CSc3nc(=O)c(=O)[nH]n3C)CS[C@H]12)c1csc(N)n1` [ceftriaxone] here?
Its three dimensional test is “positive”.

And the double disk test (E. aerogenes [2])?
The double disk test was “positive”.

And the Vitek susceptibility result (E. aerogenes [3])?
Its Vitek susceptibility result is “intermediate”.

What about the “Zone Size” value [4] of the same compound?
The value was 32 mm.

And the “clavulanate double-disk potentiation test” value (K. pneumoniae 225 [5])?
The value was “positive”.

And the MIC (K. pneumoniae 225 [6])?
Its MIC is 16 µg/mL (≈ 28.9 µM).

What about the “Zone Size” value [7] of the same compound?
Its value is 12 mm.

And the “Zone Size” value (K. pneumoniae 225 [8])?
The value was 13 mm.

What does the source list for “SHV primers: primer pair A (SEQ ID NO:10) and B (SEQ ID NO:11) specific for the SHV genes (DNA 1 CACTCAAGGATGTATTGTG; DNA 2 TTAGCGTTGCCAGTGCTCG; listed as DNA, chemistry not given here)”?
Amplification with primers (SHV and TEM genes [9]; E. coli Pit 56 (pI 7.6, SHV-2)): Yes; Amplification with primers (SHV and TEM genes [9]; E. coli Pit 64 (pI 5.6, TEM-26-type)): No; Amplification with primers (SHV and TEM genes [10]): No; Amplification with primers (SHV and TEM genes [11]; K. pneumoniae Pit 16 (pI 5.6, TEM-26-type)): No; Amplification with primers (SHV and TEM genes [11]; K. pneumoniae Pit 82 (pI 8.2, SHV-5)): Yes; Amplification with primers (SHV and TEM genes [11]; K. pneumoniae Pit 100 (pI 7.6, SHV-2)): Yes
